Results as given in patent US20200306210A1 (ZOGENIX INTERNATIONAL LIMITED, priority 2017, published 2020).
Where a name gives a salt, the structure may show the parent alone.

Tested on: subjects with Dravet syndrome
Test: Study 1503: open-label long-term extension, CGI-I at baseline and final visit
Format: in vivo, Human
Procedure: Study 1503 was an open-label, long-term safety study of ZX008 in subjects with Dravet syndrome who successfully completed 14 weeks of treatment in 1501, 1502, or 1504 Cohorts 1 and 2. […] CGI-S(baseline scores) were determined at entry into 1503 (i.e., after completing a blinded 16 week trial) and then again at each patient's final visit. FIGS. 7 and 8, and Tables 3 and 4 present numbers of patients having each of the 7 ratings and statistical calculations of improvements.
The CGI scale measures the change in the subject's clinical status from a specific point in time, i.e., the Baseline Period (and also referred to as the CGI-S, an initial ranking of severity). The CGI rating scale permits a global evaluation of the subject's improvement over time.

Question: For `CCNC(C)Cc1cccc(C(F)(F)F)c1` (stereo not drawn) [ZX008, fenfluramine hydrochloride], which “CGI-I investigator, 1 = Very much improved, % of subjects” value (OLE Baseline) is on record?
Answer: (15.8) %

Question: And the “CGI-I investigator, 1 = Very much improved, N of subjects” value (OLE Baseline)?
Answer: 35

Question: And the “CGI-I investigator, 2 = Much improved, % of subjects” value (OLE Baseline)?
Answer: (24.4) %

Question: What about the “CGI-I investigator, 2 = Much improved, N of subjects” value (OLE Baseline) of the same compound?
Answer: 54

Question: And the “CGI-I investigator, 3 = Minimally improved, % of subjects” value (OLE Baseline)?
Answer: (20.8) %

Question: And the “CGI-I investigator, 3 = Minimally improved, N of subjects” value (OLE Baseline)?
Answer: 46

Question: What about the “CGI-I investigator, 4 = No change, % of subjects” value (OLE Baseline) of the same compound?
Answer: (32.6) %

Question: What about the “CGI-I investigator, 4 = No change, N of subjects” value (OLE Baseline) of the same compound?
Answer: 72

Question: And the “CGI-I investigator, 5 = Minimally worse, % of subjects” value (OLE Baseline)?
Answer: (5.0) %

Question: And the “CGI-I investigator, 5 = Minimally worse, N of subjects” value (OLE Baseline)?
Answer: 11

Question: And the “CGI-I investigator, 6 = Much worse, % of subjects” value (OLE Baseline)?
Answer: (1.4) %

Question: And the “CGI-I investigator, 6 = Much worse, N of subjects” value (OLE Baseline)?
Answer: 3

Question: And the “CGI-I investigator, 7 = Very much worse, % of subjects” value (OLE Baseline)?
Answer: (0.0) %

Question: What about the “CGI-I investigator, 7 = Very much worse, N of subjects” value (OLE Baseline) of the same compound?
Answer: 0

Question: What about the “CGI-I investigator, Improved (1, 2, 3), %” value (OLE Baseline) of the same compound?
Answer: (61.1) %

Question: What about the “CGI-I investigator, Much/very much improved (1, 2), %” value (OLE Baseline) of the same compound?
Answer: (40.3) %

Question: What about the “CGI-I parent/caregiver, 1 = Very much improved, % of subjects” value (OLE Baseline) of the same compound?
Answer: (16.4) %

Question: What about the “CGI-I parent/caregiver, 1 = Very much improved, number of subjects” value (OLE Baseline) of the same compound?
Answer: 37

Question: And the “CGI-I parent/caregiver, 2 = Much improved, % of subjects” value (OLE Baseline)?
Answer: (21.8) %

Question: What about the “CGI-I parent/caregiver, 2 = Much improved, number of subjects” value (OLE Baseline) of the same compound?
Answer: 49

Question: What about the “CGI-I parent/caregiver, 3 = Minimally improved, % of subjects” value (OLE Baseline) of the same compound?
Answer: (19.1) %

Question: And the “CGI-I parent/caregiver, 3 = Minimally improved, number of subjects” value (OLE Baseline)?
Answer: 43

Question: What about the “CGI-I parent/caregiver, 4 = No change, % of subjects” value (OLE Baseline) of the same compound?
Answer: (26.7) %

Question: What about the “CGI-I parent/caregiver, 4 = No change, number of subjects” value (OLE Baseline) of the same compound?
Answer: 60

Question: And the “CGI-I parent/caregiver, 5 = Minimally worse, % of subjects” value (OLE Baseline)?
Answer: (10.7) %

Question: What about the “CGI-I parent/caregiver, 5 = Minimally worse, number of subjects” value (OLE Baseline) of the same compound?
Answer: 24

Question: And the “CGI-I parent/caregiver, 6 = Much worse, % of subjects” value (OLE Baseline)?
Answer: (4.0) %

Question: What about the “CGI-I parent/caregiver, 6 = Much worse, number of subjects” value (OLE Baseline) of the same compound?
Answer: 9

Question: And the “CGI-I parent/caregiver, 7 = Very much worse, % of subjects” value (OLE Baseline)?
Answer: (1.3) %

Question: What about the “CGI-I parent/caregiver, 7 = Very much worse, number of subjects” value (OLE Baseline) of the same compound?
Answer: 3

Question: What about the “CGI-I parent/caregiver, Improved (1, 2, 3), %” value (OLE Baseline) of the same compound?
Answer: (57.3) %

Question: What about the “CGI-I parent/caregiver, Much/very much improved (1, 2), %” value (OLE Baseline) of the same compound?
Answer: (38.2) %

Question: What about the “CGI-I investigator rating, Median” value (OLE Baseline, N 221, 7-point scale) of the same compound?
Answer: 3.0

Question: What about the “CGI-I investigator rating, Mean” value (OLE Baseline, N 221, scale 1 very much improved to 7 very much worse) of the same compound?
Answer: 2.9

Question: What about the “CGI-I parent/caregiver rating, Median” value (OLE Baseline, N 225, 7-point scale) of the same compound?
Answer: 3.0

Question: What about the “CGI-I parent/caregiver rating, Mean” value (OLE Baseline, N 225, scale 1 very much improved to 7 very much worse) of the same compound?
Answer: 3.1

Question: What about the “CGI-I investigator, 1 = Very much improved, % of subjects” value (OLE Final Visit) of the same compound?
Answer: (27.6) %

Question: What about the “CGI-I investigator, 1 = Very much improved, N of subjects” value (OLE Final Visit) of the same compound?
Answer: 70

Question: And the “CGI-I investigator, 2 = Much improved, % of subjects” value (OLE Final Visit)?
Answer: (36.6) %

Question: What about the “CGI-I investigator, 2 = Much improved, N of subjects” value (OLE Final Visit) of the same compound?
Answer: 93

Question: And the “CGI-I investigator, 3 = Minimally improved, % of subjects” value (OLE Final Visit)?
Answer: (21.3) %

Question: What about the “CGI-I investigator, 3 = Minimally improved, N of subjects” value (OLE Final Visit) of the same compound?
Answer: 54

Question: And the “CGI-I investigator, 4 = No change, % of subjects” value (OLE Final Visit)?
Answer: (7.9) %

Question: And the “CGI-I investigator, 4 = No change, N of subjects” value (OLE Final Visit)?
Answer: 20

Question: What about the “CGI-I investigator, 5 = Minimally worse, % of subjects” value (OLE Final Visit) of the same compound?
Answer: (5.5) %

Question: And the “CGI-I investigator, 5 = Minimally worse, N of subjects” value (OLE Final Visit)?
Answer: 14

Question: And the “CGI-I investigator, 6 = Much worse, % of subjects” value (OLE Final Visit)?
Answer: (1.2) %

Question: What about the “CGI-I investigator, 6 = Much worse, N of subjects” value (OLE Final Visit) of the same compound?
Answer: 3

Question: And the “CGI-I investigator, 7 = Very much worse, % of subjects” value (OLE Final Visit)?
Answer: (0.0) %

Question: What about the “CGI-I investigator, 7 = Very much worse, N of subjects” value (OLE Final Visit) of the same compound?
Answer: 0

Question: What about the “CGI-I investigator, Improved (1, 2, 3), %” value (OLE Final Visit) of the same compound?
Answer: (85.4) %

Question: What about the “CGI-I investigator, Much/very much improved (1, 2), %” value (OLE Final Visit) of the same compound?
Answer: (64.2) %

Question: What about the “CGI-I parent/caregiver, 1 = Very much improved, % of subjects” value (OLE Final Visit) of the same compound?
Answer: (27.0) %

Question: What about the “CGI-I parent/caregiver, 1 = Very much improved, number of subjects” value (OLE Final Visit) of the same compound?
Answer: 67

Question: What about the “CGI-I parent/caregiver, 2 = Much improved, % of subjects” value (OLE Final Visit) of the same compound?
Answer: (35.5) %

Question: What about the “CGI-I parent/caregiver, 2 = Much improved, number of subjects” value (OLE Final Visit) of the same compound?
Answer: 88

Question: What about the “CGI-I parent/caregiver, 3 = Minimally improved, % of subjects” value (OLE Final Visit) of the same compound?
Answer: (19.8) %

Question: What about the “CGI-I parent/caregiver, 3 = Minimally improved, number of subjects” value (OLE Final Visit) of the same compound?
Answer: 49

Question: What about the “CGI-I parent/caregiver, 4 = No change, % of subjects” value (OLE Final Visit) of the same compound?
Answer: (7.7) %

Question: And the “CGI-I parent/caregiver, 4 = No change, number of subjects” value (OLE Final Visit)?
Answer: 19

Question: And the “CGI-I parent/caregiver, 5 = Minimally worse, % of subjects” value (OLE Final Visit)?
Answer: (5.2) %

Question: What about the “CGI-I parent/caregiver, 5 = Minimally worse, number of subjects” value (OLE Final Visit) of the same compound?
Answer: 13

Question: And the “CGI-I parent/caregiver, 6 = Much worse, % of subjects” value (OLE Final Visit)?
Answer: (4.0) %

Question: And the “CGI-I parent/caregiver, 6 = Much worse, number of subjects” value (OLE Final Visit)?
Answer: 10

Question: What about the “CGI-I parent/caregiver, 7 = Very much worse, % of subjects” value (OLE Final Visit) of the same compound?
Answer: (0.8) %

Question: What about the “CGI-I parent/caregiver, 7 = Very much worse, number of subjects” value (OLE Final Visit) of the same compound?
Answer: 2

Question: And the “CGI-I parent/caregiver, Improved (1, 2, 3), %” value (OLE Final Visit)?
Answer: (82.3) %

Question: And the “CGI-I parent/caregiver, Much/very much improved (1, 2), %” value (OLE Final Visit)?
Answer: (62.5) %

Question: And the “CGI-I parent/caregiver rating, Median” value (OLE Final Visit, n 248, 7-point scale)?
Answer: 2.0

Question: And the “CGI-I parent/caregiver rating, Mean” value (OLE Final Visit, n 248, scale 1 very much improved to 7 very much worse)?
Answer: 2.4

Question: What about the “CGI-I investigator rating, Median” value (OLE Final Visit, n 254, 7-point scale) of the same compound?
Answer: 2.0

Question: What about the “CGI-I investigator rating, Mean” value (OLE Final Visit, n 254, scale 1 very much improved to 7 very much worse) of the same compound?
Answer: 2.3
